“Also recorded” adds a separate entry of the source.
Tested on: NCI-60 cancer cell line panel
Experiment: NCI-60 cancer cell line panel, percentage growth
Format: cell-based, human
Procedure: This example describes the testing of PFI-90 against the NCI-60 panel. The NCI-60 cancer cell line panel is a collection of 60 human cancer cell lines maintained by the National Cancer Institute (see Shoemaker et al., Nat. Rev. Cancer, 6: 813-823 (2006)). Briefly, the percentage growth of the cancer cells lines was measured in the presence of PFI-90 at various concentrations.

O=C(NNc1ccccn1)c1ccccn1 [PFI-90]
cell growth (CNS cancer cell lines): inhibits cell growth
cell growth (breast cancer cell lines): inhibits cell growth
cell growth (colon cancer cell lines): inhibits cell growth
cell growth (leukemia cell lines): slows and/or stops the growth of the cells; also recorded: inhibits cell growth
cell growth (melanoma cell lines): inhibits cell growth
cell growth (non-small cell lung cancer cell lines): inhibits cell growth
cell growth (ovarian cancer cell lines): inhibits cell growth
cell growth (prostate cancer cell lines): inhibits cell growth
cell growth (renal cancer cell lines): inhibits growth and leads to cell death; also recorded: inhibits cell growth and induces cell death
